We go through twelve compounds from patent US10689362B2, “Quinoxaline compounds as type III receptor tyrosine kinase inhibitors” (Development Center for Biotechnology, priority 2016, dated 2020).

pIC50: −log10 of the molar value. Bounds are passed on as bounds.

The subject of test [1] is Kasumi-1 human acute myeloid leukemia cell with c-KIT N822K activating mutation. Briefly: Kasumi-1 cell proliferation assay (CellTiter-96). Format: cell-based. Conditions: Cytotoxicity, Kasumi-1 cells, 72 hours. Put shortly:
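After 72 h of treatment with a compound dilution series, growth of c-KIT N822K-driven Kasumi-1 cells (64000 per well, plated the day before) was read as 490 nm absorbance. This followed a 4 h incubation with CellTiter96 AQueous One reagent.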

Another test concerns the target PDGFRβ kinase (Homo sapiens (Human), UniProt P09619). The test can be described thus: PDGFRβ kinase assay (radiometric). It counts as biochemical. The method, boiled down: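 Radiometric assay: recombinant PDGFRβ with poly(Glu4:Tyr1) in MOPS pH 7.0 buffer containing Mg2+/Mn2+, 10 μM ATP plus [33P]-ATP, and compound at 4% DMSO final. Incubated 60 min at 30° C, stopped with phosphoric acid, filter-captured and scintillation-counted. IC50 from curve fitting.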

In test [2] the test system is THP-1 human acute monocytic leukemia cell harboring NRAS G12D mutation. Briefly: THP-1 cell proliferation assay (counter screen, CellTiter-96). As to conditions: Cytotoxicity, THP-1 cells (counter screen), 72 hours. Format: cell-based. The method, boiled down:
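Growth inhibition read as 490 nm absorbance after 4 h with CellTiter96 AQueous One reagent, following 72 h compound exposure at rising concentrations. THP-1 (NRAS G12D) cells plated at 5000 per well and left overnight at 37 °C, 5% CO2 before dosing.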
In general terms: The purpose of a counterscreen is to sort out artefacts and off-target activity.

The next test has as its target CSF-1R kinase (Homo sapiens (Human), UniProt P07333). The test can be described thus: CSF-1R kinase assay (AlphaScreen). Format: biochemical. As for the experimental part:
Inhibition of CSF-1R kinase activity by a test compound disclosed herein was estimated by AlphaScreen (PerkinElmer). […] Reactions were incubated at 30° C. for 45 min and stopped by adding 5 μL of 50 mM EDTA. Analysis of resulting product using an AlphaScreen kit, and counted with Enspire Alpha (PerkinElmer). […] The IC50 values of quinoxaline compounds of this invention against CSF-1R kinase were determined using the GraphPad Prism 5 software.

Test [3] deals with CSF-1-dependent M-NFS-60 mouse myeloid leukemia cell. The test can be described thus: M-NFS-60 cell proliferation assay (CellTiter-96). As to conditions: Cytotoxicity, M-NFS-60 cells, 72 hours. Format: cell-based. The method, boiled down:
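Growth inhibition was measured as absorbance at 490 nm after 4 h with CellTiter 96 AQueous One reagent. Beforehand, M-NFS-60 cells (2000/well, CSF-1-dependent) were treated with a compound dilution series for 72 h following overnight plating at 37 °C, 5% CO2.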

A further test has as its target c-KIT kinase (Homo sapiens (Human), UniProt P10721). The test can be described thus: c-KIT kinase assay (radiometric). Format: biochemical. Put shortly: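 Recombinant c-Kit (20 ng) with 2 μg Poly-(Glu4:Tyr1) in MOPS pH 7.0 buffer with MgCl2/MnCl2, 10 μM ATP plus [^33P]-ATP, 4% DMSO final, 60 min at 30° C. Stopped with phosphoric acid, filter-captured and scintillation counted; IC50 from curve fit.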

For test [4], the system named is osteoclast precursors (osteoclast differentiation). Briefly: Osteoclast tartrate-resistant acid phosphatase assay. As to conditions: 168 h, at 1 μM treatment, 7 days, RANKL and M-CSF, read-out: inhibition activity against osteoclast differentiation. It counts as cell-based. As for the experimental part: A serial dilution of test compound was dispensed into a 96-well black clear bottom plate. Compound was diluted by the addition of DMEM media supplemented with 10% characterized fetal bovine serum. Diluted compound was transferred to a 96-well black clear bottom plate. Three thousand osteoclast precursors (Lonza, Walkersville, Md.) were added per well in growth medium containing Receptor Activator of Nuclear Factor Kappa-beta ligand (RANKL) and M-CSF. […] At the end of the incubation period, 50 μL of supernatant from each well was transferred to a clear 96-well plate. Tartrate-resistant acid phosphatase activity in the supernatant samples was determined using an acid phosphatase assay kit (Sigma, St. Louis, Mo.). Absorbance was measured at 550 nm using a plate reader. […] The Inhibition activity against osteoclast differentiation for each compound at 1 μM treatment in duplicate was measured.

Test [5] relates to MV4-11 human acute myeloid leukemia cell with FLT3-ITD mutation. Briefly: MV4-11 cell proliferation assay (CellTiter-96). It counts as cell-based. Conditions: Cytotoxicity, MV4-11 cells, 72 hours. Put shortly:
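Growth inhibition read as absorbance at 490 nm after 4 hours with CellTiter96 AQueous One reagent. Before that, FLT3-ITD-dependent MV4-11 cells (6500 cells/well, overnight at 37° C., 5% CO2) received a rising compound concentration series for 72 hours.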

For another test, the target named is FLT3 kinase (Homo sapiens (Human), UniProt P36888). The test can be described thus: FLT3 kinase assay (radiometric). As to conditions: bound. Format: biochemical. The method, boiled down:
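Recombinant FLT3 (5 ng) phosphorylating poly(Glu4:Tyr1) (2 μg) with 10 μM ATP plus [^33P]-ATP in MOPS pH 7.0 buffer, 4% DMSO final, 60 min at 30° C. Reaction stopped with phosphoric acid, filter-captured and scintillation-counted; IC50 derived from dose-response.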

PDGFRβ kinase, sequence (P09619 33-1106): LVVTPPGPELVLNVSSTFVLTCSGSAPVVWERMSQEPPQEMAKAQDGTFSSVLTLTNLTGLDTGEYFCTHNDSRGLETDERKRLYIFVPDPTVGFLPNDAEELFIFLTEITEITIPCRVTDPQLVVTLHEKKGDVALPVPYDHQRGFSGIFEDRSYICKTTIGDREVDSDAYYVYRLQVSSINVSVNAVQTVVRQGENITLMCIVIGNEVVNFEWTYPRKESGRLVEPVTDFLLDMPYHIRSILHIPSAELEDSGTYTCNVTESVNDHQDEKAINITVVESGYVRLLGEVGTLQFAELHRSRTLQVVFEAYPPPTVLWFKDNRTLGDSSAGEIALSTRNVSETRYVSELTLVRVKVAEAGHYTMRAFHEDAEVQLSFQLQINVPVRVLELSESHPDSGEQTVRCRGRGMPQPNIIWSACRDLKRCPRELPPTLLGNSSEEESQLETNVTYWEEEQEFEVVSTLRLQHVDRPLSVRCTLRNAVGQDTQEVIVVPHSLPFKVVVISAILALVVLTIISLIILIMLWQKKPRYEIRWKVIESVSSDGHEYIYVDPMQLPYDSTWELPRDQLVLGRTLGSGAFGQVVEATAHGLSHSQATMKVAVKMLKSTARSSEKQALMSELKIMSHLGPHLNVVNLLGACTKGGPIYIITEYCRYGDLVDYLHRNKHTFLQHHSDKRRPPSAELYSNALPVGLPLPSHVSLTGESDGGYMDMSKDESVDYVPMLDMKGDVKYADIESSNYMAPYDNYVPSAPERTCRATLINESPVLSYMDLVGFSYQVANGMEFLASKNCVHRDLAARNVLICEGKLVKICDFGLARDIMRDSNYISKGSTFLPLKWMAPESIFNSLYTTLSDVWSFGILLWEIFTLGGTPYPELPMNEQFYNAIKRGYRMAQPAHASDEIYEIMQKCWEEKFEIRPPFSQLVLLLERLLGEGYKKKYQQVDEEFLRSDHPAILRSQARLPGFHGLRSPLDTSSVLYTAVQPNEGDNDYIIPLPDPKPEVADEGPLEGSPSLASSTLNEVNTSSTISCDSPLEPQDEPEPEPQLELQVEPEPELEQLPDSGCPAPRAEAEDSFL
FLT3 kinase, sequence (P36888 27-993): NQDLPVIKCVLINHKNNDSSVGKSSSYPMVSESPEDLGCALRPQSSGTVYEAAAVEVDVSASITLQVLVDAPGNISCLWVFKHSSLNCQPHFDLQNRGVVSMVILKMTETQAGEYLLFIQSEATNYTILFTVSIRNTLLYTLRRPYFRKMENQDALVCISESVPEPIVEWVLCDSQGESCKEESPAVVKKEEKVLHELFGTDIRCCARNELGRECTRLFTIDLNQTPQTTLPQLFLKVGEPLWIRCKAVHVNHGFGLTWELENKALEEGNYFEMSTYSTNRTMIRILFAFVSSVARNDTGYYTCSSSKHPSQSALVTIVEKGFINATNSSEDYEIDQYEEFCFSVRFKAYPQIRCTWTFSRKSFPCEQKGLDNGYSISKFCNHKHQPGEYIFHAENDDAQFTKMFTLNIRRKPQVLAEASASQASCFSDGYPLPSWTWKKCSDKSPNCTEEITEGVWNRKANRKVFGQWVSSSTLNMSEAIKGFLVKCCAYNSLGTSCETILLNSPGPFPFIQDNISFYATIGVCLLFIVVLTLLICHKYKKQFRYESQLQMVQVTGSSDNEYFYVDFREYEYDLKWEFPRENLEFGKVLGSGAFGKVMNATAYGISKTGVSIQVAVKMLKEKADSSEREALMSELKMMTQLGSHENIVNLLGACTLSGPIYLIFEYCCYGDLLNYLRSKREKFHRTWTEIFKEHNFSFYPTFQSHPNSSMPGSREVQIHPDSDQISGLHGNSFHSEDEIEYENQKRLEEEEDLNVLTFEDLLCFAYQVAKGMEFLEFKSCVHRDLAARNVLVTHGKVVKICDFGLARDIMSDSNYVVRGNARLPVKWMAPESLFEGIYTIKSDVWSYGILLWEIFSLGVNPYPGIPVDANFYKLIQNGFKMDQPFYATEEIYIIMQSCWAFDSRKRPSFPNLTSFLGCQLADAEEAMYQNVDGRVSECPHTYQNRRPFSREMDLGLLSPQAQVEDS
c-KIT kinase, sequence (P10721 26-976): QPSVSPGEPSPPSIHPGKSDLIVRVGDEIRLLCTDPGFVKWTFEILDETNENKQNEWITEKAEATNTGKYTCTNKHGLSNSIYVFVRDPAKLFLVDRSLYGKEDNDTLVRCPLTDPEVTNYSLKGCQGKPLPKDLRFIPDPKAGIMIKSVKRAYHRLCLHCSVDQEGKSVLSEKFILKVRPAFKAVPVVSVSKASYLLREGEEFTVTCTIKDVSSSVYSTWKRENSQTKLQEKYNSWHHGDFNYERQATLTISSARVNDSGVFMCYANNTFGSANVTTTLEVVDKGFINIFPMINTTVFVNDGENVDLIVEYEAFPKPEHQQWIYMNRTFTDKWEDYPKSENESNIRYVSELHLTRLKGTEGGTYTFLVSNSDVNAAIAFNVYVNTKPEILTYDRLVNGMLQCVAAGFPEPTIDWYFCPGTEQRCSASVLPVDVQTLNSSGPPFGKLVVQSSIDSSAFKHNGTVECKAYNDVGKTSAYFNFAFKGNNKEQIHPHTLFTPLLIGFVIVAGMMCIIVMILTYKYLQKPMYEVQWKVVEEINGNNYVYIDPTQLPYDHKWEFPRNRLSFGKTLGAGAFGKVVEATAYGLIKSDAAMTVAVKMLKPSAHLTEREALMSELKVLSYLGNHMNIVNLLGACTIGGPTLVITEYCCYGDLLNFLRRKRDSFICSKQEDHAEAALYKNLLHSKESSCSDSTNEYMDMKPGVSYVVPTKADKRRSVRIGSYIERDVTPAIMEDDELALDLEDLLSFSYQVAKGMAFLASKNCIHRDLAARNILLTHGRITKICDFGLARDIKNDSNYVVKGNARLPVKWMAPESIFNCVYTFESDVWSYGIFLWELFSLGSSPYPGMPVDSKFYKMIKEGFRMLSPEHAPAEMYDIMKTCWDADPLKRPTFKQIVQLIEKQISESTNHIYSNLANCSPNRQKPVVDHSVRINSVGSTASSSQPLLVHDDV
CSF-1R kinase, sequence (P07333 20-972): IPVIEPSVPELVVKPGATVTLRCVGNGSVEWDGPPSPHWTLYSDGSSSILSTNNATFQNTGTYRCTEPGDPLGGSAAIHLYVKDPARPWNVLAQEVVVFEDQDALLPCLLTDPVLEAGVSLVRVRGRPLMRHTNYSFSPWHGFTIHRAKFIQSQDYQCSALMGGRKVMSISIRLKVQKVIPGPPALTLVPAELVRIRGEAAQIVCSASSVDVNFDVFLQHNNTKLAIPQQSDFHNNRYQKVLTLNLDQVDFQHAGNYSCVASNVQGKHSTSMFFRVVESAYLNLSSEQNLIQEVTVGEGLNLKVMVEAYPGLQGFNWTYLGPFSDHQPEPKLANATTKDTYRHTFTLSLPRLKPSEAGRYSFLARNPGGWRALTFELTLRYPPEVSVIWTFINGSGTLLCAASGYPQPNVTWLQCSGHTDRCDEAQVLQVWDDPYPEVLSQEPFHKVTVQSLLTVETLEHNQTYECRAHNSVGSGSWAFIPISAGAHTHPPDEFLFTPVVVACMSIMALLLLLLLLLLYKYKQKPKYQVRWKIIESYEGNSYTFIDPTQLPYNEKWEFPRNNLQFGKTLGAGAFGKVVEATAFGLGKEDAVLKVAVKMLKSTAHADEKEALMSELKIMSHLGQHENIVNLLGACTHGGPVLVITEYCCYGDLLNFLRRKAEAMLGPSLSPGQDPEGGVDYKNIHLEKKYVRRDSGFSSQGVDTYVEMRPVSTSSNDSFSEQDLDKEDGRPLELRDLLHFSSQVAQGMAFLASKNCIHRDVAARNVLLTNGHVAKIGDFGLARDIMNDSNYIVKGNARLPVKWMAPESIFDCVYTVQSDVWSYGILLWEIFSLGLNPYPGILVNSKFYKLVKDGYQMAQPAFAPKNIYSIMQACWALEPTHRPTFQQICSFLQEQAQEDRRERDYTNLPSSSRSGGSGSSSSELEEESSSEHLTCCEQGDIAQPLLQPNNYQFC

`COc1cc(Nc2ccc3ncc(C4CCOCC4)nc3c2C#N)ccc1OCc1ccc(C)nc1` [Example 114, 6-((3-methoxy-4-((6-methylpyridin-3-yl)methoxy)phenyl)amino)-3-(tetrahydro-2H-pyran-4-yl)quinoxaline-5-carbonitrile]: the pIC50 was 5.00 to 6.00 in [1]; < 6.00 at PDGFRβ kinase (bound); < 5.00 in test [2]; > 7.00 at CSF-1R kinase (class symbol); 5.00 to 6.00 in [3]; 6.00 to 6.52 against c-KIT kinase (class symbol). Further, the pIC50 is 5.00 to 6.00 in [5] and < 6.00 at FLT3 kinase. Also, in test [4], the inhibition at 1 µM was > 50%.
As to `COc1ccc(COc2ncc(Nc3ccc4ncc(N5CCOCC5)nc4c3C#N)cc2OC)cc1` [Example 37, 6-((5-methoxy-6-((4-methoxybenzyl)oxy)pyridin-3-yl)amino)-3-morpholinoquinoxaline-5-carbonitrile], the pIC50 is < 5.00 in test [1]; < 6.00 at PDGFRβ kinase (bound); < 5.00 in [2]; > 7.00 on CSF-1R kinase (class symbol); > 6.52 in test [3]; < 6.00 against c-KIT kinase (bound). Besides, the pIC50 in test [5] was < 5.00; against FLT3 kinase, < 6.00. In test [4], the inhibition at 1 µM is > 50%.
For the compound `COc1ccc(COc2ccc(Nc3ccc4ncc(N5CCN(CCO)CC5)nc4c3C#N)cc2OC)cc1` [Example 66, 3-(4-(2-hydroxyethyl)piperazin-1-yl)-6-((3-methoxy-4-((4-methoxybenzyl)oxy)phenyl)amino)quinoxaline-5-carbonitrile], the negative logarithm of the IC50 (pIC50) in test [1] was > 6.52; against PDGFRβ kinase (class symbol) it was 6.00 to 6.52; in test [2] it was < 5.00; against CSF-1R kinase (class symbol) it was > 7.00; in test [3] it was > 6.52; against c-KIT kinase (class symbol), > 7.00. For the same compound, the negative-log IC50 (pIC50) in test [5] is 5.00 to 6.00; on FLT3 kinase, < 6.00. In addition, the inhibition at 1 µM in test [4] was > 50%.
As to `COc1ccc(COc2ccc(Nc3ccc4ncc(N5CCOCC5)nc4c3)cc2OC)cc1` [Example 24, N-(3-methoxy-4-((4-methoxybenzyl)oxy)phenyl)-3-morpholinoquinoxalin-6-amine], the negative logarithm of the IC50 (pIC50) in test [1] is > 6.52; on PDGFRβ kinase (bound) it was < 6.00; in test [2] it was < 5.00; against CSF-1R kinase (class symbol), > 7.00; in [3] it was > 6.52; at c-KIT kinase (class symbol) it was > 7.00. Further, the negative-log IC50 (pIC50) in test [5] was 5.00 to 6.00; against FLT3 kinase it was < 6.00. Further, the inhibition at 1 µM in test [4] is > 50%.
As for `COc1ccc(COc2ccc(Nc3ccc4ncc(N5CCOCC5)nc4c3C#N)cc2OC)cn1` [Example 50, 6-((3-methoxy-4-((6-methoxypyridin-3-yl)methoxy)phenyl)amino)-3-morpholinoquinoxaline-5-carbonitrile], the pIC50 in test [1] is 6.00 to 6.52; at PDGFRβ kinase (bound), < 6.00; in [2], < 5.00; at CSF-1R kinase (class symbol) it was > 7.00; in test [3], > 6.52; on c-KIT kinase (class symbol), 6.52 to 7.00. The pIC50 in [5] is < 5.00; against FLT3 kinase it was < 6.00. Moreover, in test [4], the inhibition at 1 µM was > 50%.
For `COc1cc(Nc2ccc3ncc(N4CCOCC4)nc3c2C#N)ccc1OCc1ccc(C(F)F)nc1` [Example 111, 6-((4-((6-(difluoromethyl)pyridin-3-yl)methoxy)-3-methoxyphenyl)amino)-3-morpholinoquinoxaline-5-carbonitrile], the pIC50 was 6.00 to 6.52 in test [1]; < 6.00 against PDGFRβ kinase (bound); < 5.00 in [2]; > 7.00 on CSF-1R kinase (class symbol); > 6.52 in test [3]; 6.52 to 7.00 at c-KIT kinase (class symbol). For the same compound, the pIC50 in test [5] is 5.00 to 6.00; against FLT3 kinase, < 6.00. Also, the inhibition at 1 µM in [4] is > 50%.
Turning to `COc1cc(Nc2ccc3ncc(N(C)C)nc3c2C#N)ccc1OCc1ccc(C)nc1` [Example 133, 3-(dimethylamino)-6-((3-methoxy-4-((6-methylpyridin-3-yl)methoxy)phenyl)amino)quinoxaline-5-carbonitrile], the pIC50 in test [1] is 6.00 to 6.52; against PDGFRβ kinase (bound), < 6.00; in [2], < 5.00; against CSF-1R kinase (class symbol), > 7.00; in [3] it was > 6.52; at c-KIT kinase (class symbol), > 7.00. Besides, the values for the pIC50 (in [5]; at FLT3 kinase) were < 5.00 and < 6.00, respectively. Moreover, the inhibition at 1 µM in test [4] is > 50%.
Regarding `COc1ccc(CNc2ccc(Nc3ccc4ncc(N5CCOCC5)nc4c3C#N)cc2OC)cc1` [Example 39, 6-((3-methoxy-4-((4-methoxybenzyl)amino)phenyl)amino)-3-morpholinoquinoxaline-5-carbonitrile], the negative logarithm of the IC50 (pIC50) is 6.00 to 6.52 in test [1]; < 6.00 against PDGFRβ kinase (bound); < 5.00 in test [2]; < 6.00 against CSF-1R kinase (bound); < 5.00 in test [3]; 6.52 to 7.00 against c-KIT kinase (class symbol). Also, the negative logarithm of the IC50 (pIC50) in test [5] was 5.00 to 6.00; against FLT3 kinase, < 6.00.
Take `COc1cc(Nc2ccc3ncc(N4CCOCC4)nc3c2C#N)ccc1OCc1ccc(N(C)C)nc1` [Example 104, 6-((4-((6-(dimethylamino)pyridin-3-yl)methoxy)-3-methoxyphenyl)amino)-3-morpholinoquinoxaline-5-carbonitrile]: the negative logarithm of the IC50 (pIC50) is 5.00 to 6.00 in test [1]; < 6.00 against PDGFRβ kinase (bound); < 5.00 in [2]; > 7.00 on CSF-1R kinase (class symbol); 5.00 to 6.00 in [3]; > 7.00 on c-KIT kinase (class symbol). Further, the negative logarithm of the IC50 (pIC50) was 5.00 to 6.00 in [5] and < 6.00 against FLT3 kinase.
With `COc1cc(Nc2ccc3ncc(N4CCOCC4)nc3c2C#N)ccc1OCc1cnccn1` [Example 51, 6-((3-methoxy-4-(pyrazin-2-ylmethoxy)phenyl)amino)-3-morpholinoquinoxaline-5-carbonitrile], the pIC50 in [1] is 6.00 to 6.52; on PDGFRβ kinase (bound), < 6.00; in test [2], < 5.00; against CSF-1R kinase (bound) it was < 6.00; in [3], < 5.00; against c-KIT kinase (class symbol), > 7.00. Moreover, the negative logarithm of the IC50 (pIC50) is < 5.00 in test [5] and < 6.00 at FLT3 kinase.
Consider `COc1ccc(COc2ccc(Nc3ccc4ncc(OC)nc4c3)cc2OC)cc1` [Example 5, 3-methoxy-N-(3-methoxy-4-((4-methoxybenzyl)oxy)phenyl)quinoxalin-6-amine], for which the negative-log IC50 (pIC50) was 5.00 to 6.00 in test [1]; < 6.00 against PDGFRβ kinase (bound); < 5.00 in [2]; 6.52 to 7.00 on CSF-1R kinase (class symbol); 5.00 to 6.00 in test [3]; < 6.00 at c-KIT kinase (bound). The figures for the negative logarithm of the IC50 (pIC50) (in [5]; against FLT3 kinase) were 5.00 to 6.00 and < 6.00, respectively.
Turning to `COc1cc(Nc2ccc3ncc(N4CCOCC4)nc3c2C#N)ccc1OCc1ccoc1` [Example 121, 6-((4-(furan-3-ylmethoxy)-3-methoxyphenyl)amino)-3-morpholinoquinoxaline-5-carbonitrile], the pIC50 in test [1] was 6.00 to 6.52; against PDGFRβ kinase (bound), < 6.00; in test [2], < 5.00; on CSF-1R kinase (class symbol), 6.52 to 7.00; in test [3], 5.00 to 6.00; against c-KIT kinase (class symbol) it was 6.52 to 7.00. Besides, the negative logarithm of the IC50 (pIC50) in [5] was 5.00 to 6.00; against FLT3 kinase, < 6.00.

The pIC50 is the negative decadic logarithm of the IC50, by convention in mol/L. The low end stands for a large IC50, the high end for a small IC50. By inhibition is commonly meant the share of the control response that was lost under treatment.
